Laboratory results from patent publication US6376540B1, “Furan nitrone compounds” (Centaur Pharmaceuticals, Inc., priority 1996, dated 2002).

How the values were obtained:
synthetic Aβ(1-40) = target: T1, synthetic Aβ(1-40) (Homo sapiens, UniProt P05067); experiment: Inhibition of Aβ(1-40) beta-pleated sheet formation (ThT fluorescence); format: biochemical; conditions: 10 μM compound, ThT 3 μM, PBS pH 6.0, 12 hours; for inhibition at 10 µM: read-out: inhibition of Aβ(1-40) beta-pleated sheet formation compared to the controls
T1 construct: 3 μL of Aβ(1-40)(3 μg) prepared with dH2O
T1 sequence (P05067 672-711 limits assumed): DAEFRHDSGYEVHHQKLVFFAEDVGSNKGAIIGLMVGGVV
Text: The deposition of amyloid β-peptide (Aβ) is associated with the development of Alzheimer's disease. See, for example, G. G. Glenner et al. (1984) Biochem. Biophys. Res. Commun., 120:885-890; and R. E. Tanzi (1989) Ann. Med., 21:91-94. Accordingly, compounds which effectively disrupt the formation of Aβ(1-40) or Aβ(1-42) beta-pleated sheets are potentially useful for preventing and/or reversing such amyloid deposits. Thioflavin T (ThT) is known to rapidly associate with beta-pleated sheets, particularly the aggregated fibrils of synthetic Aβ(1-40). This association gives rise to a new excitation maximum at 440 nm and to enhanced emission at 490 nm.
The experiments were performed using a CytoFluor II fluorescence plate reader having the following parameters:
Into each well was aliquoted 95 μl of ThT (3 μM) prepared in PBS (pH 6.0), 2 μL of the compound to be tested (10 μM) prepared with 0.05% of methylcellulose in PBS (pH 6.0), and 3 μL of Aβ(1-40)(3 μg) prepared with dH2O (the compounds prepared in Examples 1, 3, 4, 5, 6, 7, 8, 9, 11 and 12 were tested). The fluorescence measurement began when the Aβ(1-40) was added and continued for a total of 12 hours. The percent inhibition of beta-pleated sheet formation was calculated from the relative fluorescence unit difference between aggregation in the presence and in the absence of the test compounds.

[1] = test system: primary neuronal/astrocyte cultures; experiment: Protection against Aβ(25-35)-induced neuronal cell loss; format: cell-based, Sprague Dawley rat; conditions: 100 μM test compound, 30 μM Aβ(25-35), 96 hours
Method: Patients with Alzheimer's disease are known to suffer a progressive loss of neuronal cells. See, for example, P. J. Whitehause et al., (1982) Science, 215:1237-1239. […] Sprague Dawley rat hippocampus of 18-day-gestation embryos was excised and then dissociated by trituration to prepare primary neuronal/astrocyte cultures. Cells (3×10^5) were plated on 35 mm poly-D-lysine-coated plates containing Eagle's minimum essential medium supplemented with 10% fetal bovine serum. After 3-5 hours, the original medium was removed and replaced with 1 mL of fresh medium. Cultures were maintained at 37° C. in a 5% CO2/95% air humidified incubator.
To the cells (7 DIV) was added 30 μM of Aβ(25-35) dissolved in dH2O (stored at −20° C.) and 100 μM of the test compound (i.e., a compound of Example 1, 3, 4, 5, 6, 7, 8, 12 or 13 above) in 1% methylcellulose. Controls were also conducted without the test compound. The percentage of morphologically viable neurons was determined counting the number of viable neurons after 96 hours treatment compared to the number of neurons before treatment in the same premarked culture regions (three regions/culture, n=6).

THP-1 cells = experiment: Reduction of β-amyloid-induced increased IL-1β release (ELISA); format: cell-based, human; conditions: 100 μM test compound with LPS and Aβ25-35, 48 hours
Method: THP-1 cells, a human monocyte cell line from American Type Culture Collection, were grown in RPMI-1640 medium plus 10% fetal bovine serum (FBS, not heat-inactivated) in T-flasks. The medium was changed every two days by spinning down (800 rpm, 5 minutes) the cells and added the same fresh medium. Alternatively, the cultures were maintained by the addition of fresh medium. The cultures were maintained at a cell concentration ranging from between 1×10^5 and 1×10^6 cells/mL. Because sera may contain unknown factors which can affect macrophage/monocyte IL-1 production, the FBS was reduced to 5% for 24 hours. The FBS was further reduced to 2% over two days prior to starting each experiment. The cells were collected by centrifugation and resuspended to 2% FBS. Cell numbers were calculated and cells were plated on 24-well plates (3×10^5 cells/0.6 mL/well). Cells were then treated with LPS (0.5 μg/ml or 0-10 μg/ml for LPS dose-response experiments) alone or in combination with Aβ peptides (5 μM or 0.05-5 μM for dose-response experiments). When determining the effect of the test compounds on cytokine release, 100 μM of the test compound was added with the LPS and Aβ25-35 and this mixture was incubated for 48 hours prior to performing ELISA.
IL-1β secretions into medium by LPS-stimulated THP-1 cells, in the presence or absence of amyloid peptides and a test compound, were assayed with a commercially available ELISA kit (R & D Systems). Briefly, a microtiter plate coated with a murine monoclonal antibody to human IL-1β was supplied by the manufacturer. Standards and samples were pipetted into the wells and any IL-1β present was bound by the immobilized antibody. Unbound proteins were washed away and a horseradish peroxidase-linked polyclonal antibody specific for IL-1β was added to the wells to “sandwich”the IL-1β bound in the initial step. […] Color development was stopped with 2 N sulfuric acid and the optical density of the standard and the test samples was measured at 450 nm. The amounts of IL-1β present in the samples were calculated based upon a standard curve. […]

[2] = Free radical trapping, DCF oxidation, ferrous iron system; format: biochemical; conditions: 100 μM test compound, 100 μM FeSO4, 50 μM DCF in MEM, 37° C., 2 hrs
Method: (§1) Dichlorofluorescein (DCF) is a compound that fluoresces when oxidized by reactive oxygen species (ROS), such as hydroxyl, peroxyl, or alkoxyl free radicals. Test compounds were evaluated for their ability to scavenge radicals by determining their capacity to prevent the DCF oxidation in a radical generating environment. Two radical generating systems were used: (i) ferrous iron and (ii) tert-butyl hydroperoxide. When ferrous iron is placed in normoxic solution, it autooxidizes to produce ROS in the form of hydroxyl radicals, superoxide anion free radicals, and hydrogen peroxide. Similarly, when tert-butyl hydroperoxide is placed in non-chelated media, trace metals catalyze its oxidation to yield alkoxy, peroxyl, and alkyl free radicals.
(§2) In this assay, either 100 μM FeSO4 or 25 μM tert-butyl hydroperoxide were mixed with 50 μM DCF and 100 μM of the test compound in MEM and the mixture was incubated at 37° C. for 2 hrs. The fluorescence wavelengths measured were 485 nm for excitation and 530 nm for emission. In these tests, N-isopropyl-α-(2-sulfofuran-5-yl)nitrone sodium salt (prepared in Example 1 above) reduced fluorescence by 20% in the Fe^+2 assay and by 13% in the tert-butyl hydroperoxide assay. In comparison, a known free radical trap, N-tert-butyl-α-phenylnitrone (PBN) reduced fluorescence by 48% in the Fe^+2 assay and by 9% in the tert-butyl hydroperoxide assay.

[3] = Free radical trapping, DCF oxidation, tert-butyl hydroperoxide system; format: biochemical; conditions: 100 μM test compound, 25 μM tert-butyl hydroperoxide, 50 μM DCF in MEM, 37° C., 2 hrs
Method: as §1, §2

## CCCC[N+]([O-])=Cc1ccc(S(=O)(=O)O)o1 [Example 3, N-n-Butyl-α-(2-sulfofuran-5yl)nitrone]
Synthetic Aβ(1-40)
  inhibition of Aβ(1-40) beta-pleated sheet formation compared to the controls: did not significantly reduce

## CC(C)(C)[N+]([O-])=Cc1ccc(S(=O)(=O)O)o1 [Example 4, N-tert-Butyl-α-(2-sulfofuran-5-yl)nitrone]
Synthetic Aβ(1-40)
  inhibition of Aβ(1-40) beta-pleated sheet formation compared to the controls: did not significantly reduce
[1]
  reduction of Aβ(25-35)-induced neuronal cell loss compared to the controls: did not significantly reduce

## CCCCCC[N+]([O-])=Cc1ccc(S(=O)(=O)O)o1 [Example 5, N-n-Hexyl-α-(2-sulfofuran-5-yl)nitrone]
Synthetic Aβ(1-40)
  inhibition at 10 µM: 15 to 71%

## O=S(=O)(O)c1ccc(C=[N+]([O-])C2CCCCC2)o1 [Example 6, N-Cyclohexyl-α-(2-sulfofuran-5-yl)nitrone]
Synthetic Aβ(1-40)
  inhibition at 10 µM: 15 to 71%

## CC(C)(C)CC(C)(C)[N+]([O-])=Cc1ccc(S(=O)(=O)O)o1 [Example 7, N-tert-Octyl-α-(2-sulfofuran-5-yl)nitrone]
Synthetic Aβ(1-40)
  inhibition at 10 µM: 15 to 71%

## O=S(=O)(O)c1ccc(C=[N+]([O-])Cc2ccccc2)o1 [Example 9, N-Benzyl-α-(2-sulfofuran-5-yl)nitrone]
Synthetic Aβ(1-40)
  inhibition at 10 µM: 15 to 71%

## CC(C)[N+]([O-])=Cc1ccc(S(=O)(=O)N2CCOCC2)o1 [Example 11, N-Isopropyl-α-[2-(N-morpholinosulfonyl)furan-5-yl]nitrone]
THP-1 cells
  reduction of the β-amyloid-induced increased release of interleukin-1β compared to the controls: did not significantly reduce

## CCN(CC)S(=O)(=O)c1ccc(C=[N+]([O-])C(C)C)o1 [Example 12, N-Isopropyl-α-[2-(N,N-diethylsulfamoyl)furan-5-yl]nitrone]
Synthetic Aβ(1-40)
  inhibition at 10 µM: 15 to 71%

## CC(C)[N+]([O-])=Cc1ccc(S(=O)(=O)N2CCN(C)CC2)o1 [Example 14, N-Isopropyl-α-[2-(N-4-methylpiperazin-1-ylsulfonyl)furan-5-yl]nitrone]
THP-1 cells
  reduction of the β-amyloid-induced increased release of interleukin-1β compared to the controls: did not significantly reduce

## CC(C)[N+]([O-])=Cc1ccc(S(=O)(=O)N2CCN(C)CC2)o1.Cl [Example 15, N-Isopropyl-α-[2-(N-4-methylpiperazin-1-ylsulfonyl)-furan-5-yl]nitrone Hydrochloride]
THP-1 cells
  reduction of the β-amyloid-induced increased release of interleukin-1β compared to the controls: did not significantly reduce

## CC(C)(C)[N+]([O-])=Cc1ccccc1 [PBN, N-tert-butyl-α-phenylnitrone, reference compound]
[2]
  reduced fluorescence in the Fe^+2 assay: 48%
[3]
  reduced fluorescence in the tert-butyl hydroperoxide assay: 9%

## N-Adamantyl-α-(2-sulfofuran-5-yl)nitrone [Example 8]
Synthetic Aβ(1-40)
  inhibition of Aβ(1-40) beta-pleated sheet formation compared to the controls: did not significantly reduce
